Experimental data published in patent US20080188524A1, “Methods of treating pain” (priority 2006, published 2008).
pIC50: −log10 of the molar value. “And” between values parts separate entries of the source, which are not always exact repeats. Equal values may be shown once. “Also recorded” adds a separate entry of the source.

Assays:
[1] = test system: LPS or SEB induced TNF α in human whole blood; test: tissue or blood; assay type: cell-based
[2] = test system: SNI mice (mechanical allodynia); test: Spared nerve injury (SNI) model, von Frey assay; assay type: in vivo, mice (strain C3HeB/FeJ); conditions: 30 mg/kg i.p., day 21 post SNI
From the text: The spared nerve injury model (SNI model, as developed by Decosterd and Woolf (2000), see FIG. 1) is characterized by the induction of clinically relevant nerve lesions and after surgical intervention, subsequent behavioral experiments (e.g., von Frey Assay). Said model constitutes a common nerve injury model which consists of ligation and section of two branches of the sciatic nerve (namely tibial and common peroneal nerves) leaving the sural nerve intact. The SNI model results in early (less than 24 hours), prolonged and substantial changes in mechanical and cold sensitivity that closely mimic the features of clinical neuropathic pain. […] As outlined above, the spared nerve injury (SNI) model (see FIG. 1) involves a lesion of two of the three terminal branches of the sciatic nerve (tibial and common peroneal nerves) of experimental animals, leaving the sural nerve intact. SNI results in mechanical and thermal allodynia in the non-injured sural nerve skin territory (Decosterd and Woolf, Pain 2000; 87:149-158. (2) Tsujino et al., Mol. Cel. Neurosci. 2000; 15:170-182). Wildtype mice (strain […]/FeJ) (age, sex and weight matched) are anesthetized with Hypnorm (0.315 mg/ml fentanyl citrate +10 mg/ml fluanisone; Janssen)/Hypnovel (5 mg/ml midazolam; Roche Applied Sciences)/water at a ratio of 1:1:2 at 4 μl/g prior to surgical preparation. Subsequently, an incision is made under aseptic precautions in the ipsi-lateral right hind leg of all mice just above the level of the knee, exposing the three terminal branches of the sciatic nerve: the common peroneal, tibial, and sural nerves. The common peroneal and tibial nerves are ligated tightly with 7/0 silk and sectioned distal to the ligation removing 2 mm of distal nerve stump. The sural branch remains untouched during the procedure (denoted herein “SNI ipsi”). […] Reflex nociceptive responses to mechanical stimulation were measured in a von Frey assay 30 min after each injection. […] Mechanical thresholds of SNI mice are quantified using the up-down method based on Chaplan et al. (1994) and Malmberg and Basbaum (1998). […]

[3] = test system: carrageenan-treated mice (paw edema); test: Carrageenan assay in mice, paw edema; assay type: in vivo; conditions: within the observation period, all treated animals
Protocol: For the carrageenan assay a subcutaneous injection of 25 μl of 1% carrageenan (in saline) into a single hind paw (ipsi-lateral paw) of mice is applied. Subsequent inflammation results in long lasting swelling and hypersensitivity (against mechanical and thermal stimuli) of the paw. The carrageenan assay is a standard laboratory assay used to predict anti-inflammatory activity of test compounds. Paw edema measurements and Hargreaves Assay (withdrawal of paws due to thermal stimulation via a light source) are used for read out. The model of carrageenan induced paw edema is a standard laboratory assay used to predict anti-inflammatory activity and reduction of inflammation-induced pain perception of respective compounds. The following protocol describes one possible way to conduct the experiment. The basic measurement constitutes in the measurement of edema and mechanical as well as thermal hypersensitivity in response to irritants, such as carrageenan. […] Paw edema induced by carrageenan injection are detected by increased paw size measured from dorsal to plantar at the metatarsus region of the injected (ipsi-lateral) paws. Sizes of ipsi- and contra-lateral paws serve as surrogate markers for inflammation and are measured at several time points after carrageenan injection: before injection (-1), 2 […] […]

[4] = test system: TNFα and IL6 expression in LPS induced THP-1 macrophages; test: In vitro THP-1 assay, LPS-induced cytokine expression (ELISA); assay type: cell-based, human
Protocol: The human THP-1 cell line can be utilized as an in vitro model of cytokine expression as mediated by Lipopolysaccharide (LPS) or Tumor Necrosis Factors [TNFα]. Monocytic THP-1 cells (ATCC; TIB-202) can be differentiated into macrophage-like cells expressing pro-inflammatory cytokines like TNFα, IL6 and IL1β upon induction with LPS or by TNFα (autocrine induction) itself. THP-1 cells are grown in modified RPMI-1640medium (ATCC, Cat. No. 30-2001) supplemented with 10% FCS and 1% Pen/Strep. For cytokine inhibition assays, cells are seeded at a density of 5×10^5 cells/ml into 6-well plates in standard growth medium supplemented with 100 ng/ml PMA (Sigma, P1585) to induce differentiation into macrophage-like cells. After 24 hours, the medium is replaced with standard growth medium (without PMA) and the cells are incubated for another 48 hours to complete differentiation. […] Cells are incubated for 60 min with compounds prior to stimulation with 100 ng/ml LPS (Sigma, L2630) for another 4-48 hours. Supernatants are collected and assayed immediately for cytokine expression, e.g. for TNFα, IL-6 and IL-1b using commercially available sandwich ELISA assays (eBioscience, Cat. No 88-7346, 88-7066, 88-7010) or kept frozen at […] until evaluation. Concentrations of TNFα, IL6 and IL1β within the cell culture supernatants are measured by using commercial ELISA Kits (eBioscience) according to the manufacturer's instructions. CDK-inhibitory compounds according to any one of general Formula I, II or III are administered to differentiated THP-1 cells in triplicates as described above (see section 2.). After 60 min of pre-incubation with test or reference compound (SB203580, a p38 inhibitor and BMS345541, an IKK-inhibitor) alone, cells are stimulated with LPS. After incubation for 4-48 h, supernatants are collected and ELISA based determinations of cytokine supernatant concentrations are performed as described in section 3, supra. […] After 60 min of pre-incubation with test or reference compound (a p38 inhibitor and an IKK-inhibitor, respectively) alone, cells were stimulated with LPS. […]

[5] = LPS-stimulated differentiated THP-1 cells, ELISA

SMILES: CC(C)(C)c1cnc(CSc2cnc(NC(=O)C3CCNCC3)s2)o1 [compound #16 of Table 1, N-[5-[[[5-(1,1-dimethylethyl)-2-oxazolyl]-methyl]thio]-2-thiazolyl]-4-piperidinecarboxamide]
- reduction of TNF α levels [1]: 89% and 85% and 78%
- pIC50 ([1]; Homo sapiens, read-out: IC50 (TNF α reduction), deduced from the data): > 6.30
- effect on mechanical allodynia of SNI mice (von Frey) ([2]; 30 min prior to von Frey measurement, ipsi-lateral paw): hypoalgesic effect; also recorded: significant amelioration of allodynia
- contra-lateral paws, effect of pharmacological treatment (von Frey) ([2]; contra-lateral paw): unaffected
- von Frey threshold values ([2]; ipsi-lateral paw, all treated animals): significant increase of threshold values
- ipsi-lateral paw edema compared to vehicle control group [3]: reduced paw edema
- TNFα signal compared to DMSO (vehicle control) ([4]; 3 μM, LPS-induced THP-1 cells): 50%
- effect on IL6 protein concentration in the cell supernatant versus vehicle (DMSO) [4, 5]: significant inhibitory effect
- effect on TNFα protein concentration in the cell supernatant versus vehicle (DMSO) [4, 5]: significant inhibitory effect
